{"source": "patent US20070054965A1", "about": "“AMPK activating agent” (Kao Corporation, priority 2005, published 2007)", "key": {"[1]": {"assay": "Endurance-enhancing and antifatigue effects, maximum swimming time of mice in a current water pool", "type": "in vivo", "settings": "for Maximum swimming time: 7 L/min, Balb/c male mice", "experimental": "The endurance-enhancing and antifatigue effects of nootkatone were evaluated as described below. Nootkatone used was a product of Avocado.\nThe endurance-enhancing and antifatigue effects were evaluated according to the measurement method of maximum swimming time of mice (Reference: Am J Physiol Regul Integr Comp Physiol, Vol. 288, R708-R715, 2005) in a current water pool. The experimental pool used was a clear acrylic pool (90 cm long×45 cm wide×45 cm deep) filled to a depth of 38 cm with water maintained at 34° C. with a heater. The current in the pool was generated with a pump (C-P60H, manufactured by Hitachi), and the current speed was adjusted by connecting Water flowmeter (Tofco) to the pump and opening and closing a valve. The current speed was measured with a digital current meter (SV-101-25S, Sankou Seimitsu Kogyo).\nExperimental animals used were 5-week-old Balb/c male mice (Charles River Laboratories, Inc.). The mice were preliminarily raised for 1 week under a constant raising environment (23±2° C., light period: 7 a.m. to 7 p.m.) and acclimated. In subsequent 1-week training, the mice were accustomed to swimming exercise three times a week (subjected to swimming exercise for 30 minutes at a current speed of 5 L/min on the first day, and for 30 minutes at a current speed of 6 L/min on the third and fifth days). […] The mice were divided into 2 groups, a test diet group and a control diet group, each containing 8 mice, to prevent a difference in maximum swimming time between the groups. Diets prepared in the formulation composition shown in Table 8 were used to raise the mice for 10 weeks. During this period, the measurement of maximum swimming time (7 L/min) and training (6 L/min, 30 minutes) were performed once every week."}, "[2]": {"assay": "Antiobesity, antidiabetic and antilifestyle-related disease effects in C57BL/6 mice raised on high-fat diet", "type": "in vivo", "experimental": "The antiobesity, antidiabetic, and antilifestyle-related disease effects of nootkatone were evaluated as described below.\nSeven-week-old C57BL/6 male mice were divided into 3 groups each containing 10 mice and raised with each diet of the composition described in Table 2.\nTwenty-two weeks later, their body weights were measured, while blood was collected from the mice under ether anesthesia and under non-fasting conditions to measure serum glucose, cholesterol, triglyceride, insulin, and leptin levels. The amount of visceral fat (epididymal fat, retroperitoneal fat, and perirenal fat) was also measured."}, "[3]": {"system": "lipid metabolism activity (β-oxidation activity)", "assay": "Lipid metabolism activity (β-oxidation activity) of liver and skeletal muscle after oral administration", "type": "in vivo, mice", "experimental": "Seven-week-old Balb/c male mice were divided into 2 groups, to which a physiological saline (control) or nootkatone at 200 mg/kg of body weight was then orally administered for 10 consecutive days. Then, their livers and skeletal muscles (gastrocnemius muscle+soleus muscle) were collected. The livers and skeletal muscles were respectively homogenized in a buffer (250 mM sucrose, 1 mM EDTA in 10 mM HEPES (pH 7.2)), and the insoluble tissue residues were removed by centrifugation to obtain supernatants. The obtained supernatants were measured for protein levels. The protein levels were adjusted among samples to constant levels, and the samples were used in the measurement of lipid metabolism activity (β-oxidation activity). A 100-μg aliquot of the supernatant protein was reacted at 37° C. for 20 minutes with 0.1 μCi [^14C]-palmitic acid in a buffer (50 mM Tris-HCl (pH 8.0), 40 mM NaCl, 2 mM KCl, 2 mM MgCl2, 1 mM DTT, 5 mM ATP, 0.2 mM L-carnitine, 0.2 mM NAD, 0.06 mM FAD, 0.12 mM CoA, 3 mM α-cyclodextrin) at the final volume of 200 μL. The reaction was terminated with 200 μL of 0.6 N perchloric acid, and the unreacted [^14C]-palmitic acid was removed 3 times with 1 mL hexane. Lipid-degrading activity was measured by measuring radioactivity of the aqueous layer.\nThe degree of the lipid-degrading activity was indicated as a relative value to that of the control defined as 100."}, "AMPKα": {"system": "AMPKα", "assay": "AMPK-activating action in C2C12 muscle cells, AMPKα phosphorylation (Western blot)", "type": "cell-based, murine", "settings": "for Phospho-AMPKα: 60 minutes, C2C12, relative value to control defined as 100", "experimental": "(§1) A muscle cell line (C2C12) was used to evaluate the AMPK-activating action of nootkatone according to the procedures below with AMPKα and AMPKβ phosphorylation as indexes.\nCells of the murine muscle cell line (C2C12) were seeded onto a 25 cm^2 flask and cultured in DMEM (+10% FBS, +antimicrobial agent) at 37° C. for 1 to 2 days. When the cells became confluent, the culture solution was removed, and the cells were washed with PBS (−) and further cultured for 7 to 8 days in fresh DMEM (2% (V/V) horse serum), which was in turn replaced by a fresh culture solution every 2 to 3 days. The culture solution was then removed, and the cells were washed with PBS (−) and further cultured in fresh DMEM (−FBS) for 1 day. After the removal of the culture solution, the cells were cultured in DMEM (−FBS) containing a predetermined concentration of nootkatone (obtained from Wako Pure Chemical Industries, Ltd.) for 60 minutes. After the culture solution was subsequently removed and the cells were washed with PBS (−), 200 μL of cell lysis solution (10 mmol/L Tris (pH 7.4), 50 mmol/L sodium chloride, 30 mmol/L sodium pyrophosphate, 0.5% (V/V) Triton X-100, protease inhibitor cocktail (SIGMA P2714), phosphatase inhibitor cocktail-1 (SIGMA P2850), phosphatase inhibitor cocktail-2 (SIGMA P5726)) was added and the cell lysis solution was collected with a cell scraper. The collected cell lysis solution was well homogenized by passing it through a syringe with a 23G needle three times and then left on ice for 30 minutes. The homogenate was centrifuged at 15000 r/min at 4° C. for 15 minutes, and the resulting supernatant protein was used in the measurement below.\n(§2) The concentration of the supernatant protein was measured, and the protein concentrations were then adjusted among samples to constant concentrations. […]\n(§3) Predetermined amounts (approximately 20 to 40 μg) of the samples for electrophoresis were subjected to SDS-PAGE (12% gel) and transferred to a membrane. Then, phospho-AMPKα and phospho-AMPKβ were detected by using anti-phospho-AMPKα ([…]) antibodies (manufactured by Cell Signaling Technology, Inc.) or anti-phospho-AMPKβ (Ser108) antibodies (manufactured by Cell Signaling Technology, Inc.) as primary antibodies, anti-rabbit-HRP antibodies (manufactured by Amersham Biosciences) as secondary antibodies, and Phototope-HRP Western Detection System (manufactured by Cell Signaling Technology, Inc.) as a detection reagent. The degree of AMPK activation was indicated as a relative value to that of a control (sample-free group) defined as 100 by digitizing (pixelizing) detected band strength by image analysis (EDAS290 image analysis system; KODAK)."}, "AMPKβ": {"system": "AMPKβ", "assay": "AMPK-activating action in C2C12 muscle cells, AMPKβ phosphorylation (Western blot)", "type": "cell-based, murine", "settings": "60 minutes, relative value to control defined as 100", "experimental": "as §1\nCells of the murine muscle cell line (C2C12) were seeded onto a 25 cm^2 flask and cultured in DMEM (+10% FBS, +antimicrobial agent) at 37° C. for 1 to 2 days. When the cells became confluent, the culture solution was removed, and the cells were washed with PBS (−) and further cultured for 7 to 8 days in fresh DMEM (2% (V/V) horse serum), which was in turn replaced by a fresh culture solution every 2 to 3 days. The culture solution was then removed, and the cells were washed with PBS (−) and further cultured in fresh DMEM (−FBS) for 1 day. After the removal of the culture solution, the cells were cultured in DMEM (−FBS) containing a predetermined concentration of nootkatone (obtained from Wako Pure Chemical Industries, Ltd.) for 60 minutes. […]\nas §2, §3"}, "[4]": {"settings": "Group 3 (0.5% nootkatone), 22 weeks"}, "[5]": {"settings": "Group 3: high-fat diet with 0.5% nootkatone, 22 weeks, C57BL/6 male mice"}, "[6]": {"settings": "serum, non-fasting, Group 3: high-fat diet with 0.5% nootkatone, 22 weeks"}}, "data": [{"smiles": "C=C(C)[C@@H]1CCC2=CC(=O)C[C@@H](C)[C@]2(C)C1", "note": "(stereo in doubt) [Nootkatone, 4,4a,5,6,7,8-hexahydro-6-isopropenyl-4,4a-dimethyl-2(3H)-naphthalenone]", "values": [{"measurement": "Maximum swimming time", "setting": "[1]; after 10 week raising on test diet with 0.2% nootkatone", "value": "40.01 ± 3.17", "unit": "min"}, {"measurement": "Maximum swimming time", "setting": "[1]; before raising (baseline of test diet group)", "value": "27.31 ± 1.72", "unit": "min"}, {"measurement": "Maximum swimming time after 10-week raising", "setting": "[1]; test diet containing nootkatone as compared with the control diet group", "value": "significantly prolonged"}, {"measurement": "Increment of body weights and amount of visceral fat", "setting": "[2]; Group 3 (0.5% nootkatone) as compared with Group 2", "value": "remarkably reduced"}, {"measurement": "Effect on rise in blood cholesterol level", "setting": "[2]; [4]", "value": "excellent inhibitory effect"}, {"measurement": "Effect on rise in blood insulin level", "setting": "[2]; [4]", "value": "excellent inhibitory effect"}, {"measurement": "Effect on rise in blood leptin level", "setting": "[2]; [4]", "value": "excellent inhibitory effect"}, {"measurement": "Effect on rise in blood triglyceride level", "setting": "[2]; [4]", "value": "excellent inhibitory effect"}, {"measurement": "Effect on rise in blood-glucose level", "setting": "[2]; [4]", "value": "excellent inhibitory effect"}, {"measurement": "Body weight", "setting": "[2]; [5]", "value": 30.4, "unit": "g"}, {"measurement": "Epididymal fat", "setting": "[2]; [5]", "value": 0.47, "unit": "g"}, {"measurement": "Perirenal fat", "setting": "[2]; [5]", "value": 0.07, "unit": "g"}, {"measurement": "Retroperitoneal fat", "setting": "[2]; [5]", "value": 0.15, "unit": "g"}, {"measurement": "Glucose", "setting": "[2]; [6]", "value": 212.3, "unit": "mg/dL"}, {"measurement": "Insulin", "setting": "[2]; [6]", "value": 1.26, "unit": "ng/mL"}, {"measurement": "Leptin", "setting": "[2]; [6]", "value": 6.2, "unit": "ng/mL"}, {"measurement": "Total cholesterol", "setting": "[2]; [6]", "value": 131.3, "unit": "mg/dL"}, {"measurement": "Triglyceride", "setting": "[2]; [6]", "value": 54.3, "unit": "mg/dL"}, {"measurement": "Lipid-degrading activity (β-oxidation activity), skeletal muscle", "setting": "[3]; 200 mg/kg orally for 10 consecutive days, Balb/c male mice, gastrocnemius + soleus muscle, relative value to control defined as 100", "value": 271}, {"measurement": "Lipid-degrading activity (β-oxidation activity), liver", "setting": "[3]; 200 mg/kg orally for 10 consecutive days, Balb/c male mice, relative value to control defined as 100", "value": 273}, {"measurement": "Lipid-degrading activity (β-oxidation activity) of the liver and skeletal muscle", "setting": "[3]; mice given nootkatone 200 mg/kg, 10 days, versus control", "value": "remarkably increased"}, {"measurement": "AMPK-activating action in the muscle cells", "setting": "AMPKα; C2C12, summary of Table 1", "value": "strong AMPK-activating action"}, {"measurement": "Phospho-AMPKα", "setting": "AMPKα; nootkatone 50 μmol/L", "value": 402}, {"measurement": "Phospho-AMPKα", "setting": "AMPKα; nootkatone 100 μmol/L", "value": 952}, {"measurement": "Phospho-AMPKα", "setting": "AMPKα; nootkatone 150 μmol/L", "value": 1077}, {"measurement": "Phospho-AMPKβ", "setting": "AMPKβ; nootkatone 50 μmol/L", "value": 241}, {"measurement": "Phospho-AMPKβ", "setting": "AMPKβ; nootkatone 100 μmol/L", "value": 314}, {"measurement": "Phospho-AMPKβ", "setting": "AMPKβ; nootkatone 150 μmol/L", "value": 358}]}]}
